Experiments:
[1] = system: DMBA-induced NIH3T3 cells; test: Foci formation assay in DMBA-induced NIH3T3 cells; assay type: cell-based
Procedure: The foci formation assay was performed according to Reznikoff et al. NIH3T3 cells were obtained from American Type Culture Collection (ATCC) and cultured in RPMI 1640 medium supplemented with 10% fetal bovine serum (FBS) (Invitrogen, Carlsbad, CA, USA). Cells were plated at a density of 500 cells/well in 12-well plates, incubated overnight at 37°C and treated with lunasin or BBI for 4 hrs. Then, cells were treated with 1.5 µg/ml DMBA for 20 hrs. After washing with PBS, fresh medium was added. Peptides were added and medium was changed every week for 6 weeks. At the end of experiment, cells were washed with 0.9% NaCl, fixed with methanol, stained with Giemsa, and scored for transformed foci. The negative control was a set of cells receiving no DMBA, while the positive control consisted of cells induced by DMBA but without treatment.

[2] = system: Pancreatin from porcine pancreas; test: In vitro digestion of lunasin with pancreatin, with or without protease inhibitors; assay type: in vitro ADME; settings: pre-incubation with inhibitor 30 min at 25°C, pancreatin 1 h at 37°C, Western-Blot band intensity
Procedure: (§1) Figure 2 Soy-derived BBI and KTI protect synthetic lunasin from in vitro digestion. The upper, lighter bands are Coomassie Blue protein stains and the lower, darker bands are Western blots. (M) Markers, (1) Lunasin (600 ng) + pancreatin (600 ng) incubated for 0 h at 37°C, (2) Lunasin (600 ng) + pancreatin (600 ng) incubated for 1 h at 37°C, (3) Lunasin (600 ng) + BBI (18,000 ng, unboiled) + pancreatin (600 ng) incubated for 1 h at 37°C, (4). Lunasin (600 ng) + KTI (18,000 ng, unboiled) + pancreatin (600 ng) incubated for 1 h at 37°C, (5) Lunasin (600 ng) + BBI (18,000 ng, boiled) + pancreatin (600 ng) incubated for 1 h at 37°C, (6) Lunasin (600 ng)+KTI (18,000 ng, boiled) + pancreatin (600 ng) incubated for 1 h at 37°C, (7) BBI (unboiled), (8) KTI (unboiled).
(§2) In vitro digestion of lunasin was carried out following the method published in the United States Pharmacopeia. Synthetic lunasin (American Peptide Company, Inc. Sunnyvale, CA, USA) (5 µg) was incubated with the protease inhibitors BBI or KTI (Sigma, St. Louis, MO, USA) for 30 min at 25°C. Pancreatin from porcine pancreas (Sigma) was added (enzyme∶protein ratio of 1∶10) and solution was incubated at 37°C for 1 h. Tris-tricine sample buffer was added at the end of the reaction and immediately stopped by placing the tubes in a boiling water bath for 5 min. The digests were analyzed by SDS-PAGE and Western-Blot following the protocol previously described.

[3] = system: pancreatin; test: as above; assay type: in vitro ADME, porcine; settings: pig, pancreatin from porcine pancreas; in the presence of boiled KTI; pre-incubation with inhibitor 30 min at 25°C; pancreatin 1 h at 37°C; Western-Blot band intensity; read-out: lunasin remaining intact after digestion with pancreatin
Procedure: as §1, §2

[4] = Bioavailability of 3H-lunasin after oral gavage with LES in CD-1 mice; assay type: in vivo
Procedure: Bioavailability studies in mice were done at North View Pacific Laboratories (Hercules, CA, USA), according with the Animal Care and Use Committee (ACUC) human guidelines. CD-1 mice (3-5 weeks old) were purchased from Jackson Laboratories (Bar Harbor, ME, USA) and conditioned on AIN76A diet for one week. Forty mice (20 male and 20 female) were fasted for 8 hrs before oral administration by gavage. Mice were separated into two groups, a control group receiving 240 mg of LES formulation and a treatment group receiving 240 mg of LES formulation plus 8 µCi of ^3H-lunasin (SibTech, Inc. Brookfield, CT, USA) in 0.1 mL of 10% sucrose solution. Four mice of each group were sacrificed at 3, 6, 9, 12 and 24 hrs after oral administration. The tissue samples were collected and prepared for scintillation counting by solubilizing in TS-2 tissue solubilizer (Research Products International Corp., Chicago, IL, USA) and addition of 15% benzoyl peroxide. Each sample was read in 5 ml of HionicFluor cocktail mix using a 1600TR liquid scintillation counter (Packard Inst. Meriden CT, USA).
Supplementary file pone.0008890.s001.tif: Figure S1 Recovery of ^3H-lunasin dose (expressed in percentage) in (-▴-) total, (-•-) tissues, and (-o-) gastrointestinal contents of mice at 3, 6, 9, 12, and 24 hours post-gavage of lunasin-enriched soy (LES). […]

[5] = system: MDA-MB-231 tumors; test: In situ TUNEL assay for apoptosis in xenograft tumor sections; assay type: in vivo, athymic NCr-nu/nu mice; settings: lunasin 20 and 4 mg/kg (P = 0.0088, 0.0141 vs control), BBI 20 mg/kg i.p.
Procedure: In situ terminal deoxynucleotidyl transferase-mediated dUTP nick end labeling (TUNEL) assay was performed using ApopTag Detection Kit (Millipore, USA & Canada) and ran based on the manufacturer's protocol. Briefly, deparaffinized and rehydrated sections were pretreated with 20 µg/mL proteinase K for 15 min and incubated with terminal transferase and digoxigenin dUTP at 37°C for 1 h. After washing, sections were incubated with antidigoxigenin rhodamine (Millipore) and DAPI (Invitrogen), and slides were visualized by fluorescent microscopy (Axiophot 381). The apoptotic cells were calculated as percentage of positive cells over total number of cells counted in microscope at 400× magnification.

[6] = system: skin papilloma; settings: applied topically at 250 mg/week; SENCAR mice; cited from earlier work
Description: […] […] This is consistent with another observation that lunasin slows down epidermal cell proliferation in mouse skin in the absence and presence of DMBA using a ^2H2O label ...

lunasin remaining intact after digestion with pancreatin ([2]; in the presence of boiled BBI): 98% | lunasin remaining intact after digestion with pancreatin ([2]; in the presence of unboiled BBI): Approximately 93% | lunasin remaining intact after digestion with pancreatin ([2]; in the presence of unboiled KTI): ~97% | remaining at 1 h [3]: 84% | total oral dose of lunasin absorbed ([4]; 3 hrs post-gavage, 3H-labelled synthetic lunasin (8 µCi) mixed with 240 mg LES, CD-1 mice fasted 8 hrs, scintillation counting of tissues): approximately 30% | crossing of the blood-brain barrier ([4]; oral gavage of 3H-lunasin with LES, CD-1 mice, 3H radioactivity in brain): able to cross the blood-brain barrier
SMILES: CC[C@H](C)[C@H](NC(=O)[C@H](CCCCN)NC(=O)[C@H](CCC(=O)O)NC(=O)[C@H](CCSC)NC(=O)[C@@H](NC(=O)[C@H](Cc1c[nH]cn1)NC(=O)[C@H](CCCCN)NC(=O)[C@H](CCC(=O)O)NC(=O)[C@H](CS)NC(=O)[C@@H]1CCCN1C(=O)[C@@H](NC(=O)[C@H](CC(C)C)NC(=O)[C@H](CC(N)=O)NC(=O)[C@@H](NC(=O)CNC(=O)[C@H](CCC(N)=O)NC(=O)[C@H](CC(C)C)NC(=O)[C@H](CCC(N)=O)NC(=O)[C@H](CCCCN)NC(=O)[C@H](CCCNC(=N)N)NC(=O)[C@H](CS)NC(=O)[C@H](CO)NC(=O)[C@H](CC(=O)O)NC(=O)[C@H](CCC(N)=O)NC(=O)[C@H](CCC(N)=O)NC(=O)[C@H](Cc1c[nH]cn1)NC(=O)[C@H](CCC(N)=O)NC(=O)[C@H](Cc1c[nH]c2ccccc12)NC(=O)[C@H](CCCCN)NC(=O)[C@@H](N)CO)C(C)C)[C@@H](C)O)[C@@H](C)CC)C(=O)N[C@@H](CCC(N)=O)C(=O)NCC(=O)N[C@@H](CCCNC(=N)N)C(=O)NCC(=O)N[C@@H](CC(=O)O)C(=O)N[C@@H](CC(=O)O)C(=O)N[C@@H](CC(=O)O)C(=O)N[C@@H](CC(=O)O)C(=O)N[C@@H](CC(=O)O)C(=O)N[C@@H](CC(=O)O)C(=O)N[C@@H](CC(=O)O)C(=O)N[C@@H](CC(=O)O)C(=O)N[C@@H](CC(=O)O)C(=O)O [lunasin]
lunasin more effective than BBI in foci formation inhibition on an equimolar basis ([1]; 100 nM each): 18% | reduction of foci formation ([1]; 100 nM peptide, 1.5 µg/ml DMBA, 6 weeks, n = 6): 73% | suppression of foci formation ([1]; 1 µM lunasin extracted from the liver of LES-fed rats, n = 6): as effectively as an equimolar amount of synthetic lunasin | TUNEL-positive apoptotic cells in tumors [5]: significantly increased apoptosis | suppression of skin papilloma formation compared with the control [6]: 70%

— publication PMC2811193, “Complementary Roles in Cancer Prevention: Protease Inhibitor Makes the Cancer Preventive Peptide Lunasin Bioavailable” (PLoS ONE, 2010)
